Converted amounts (≈) assume the structure as drawn. Read-outs that look alike come from different tables or passages of the source.
How the values were obtained:
HepG2 = assay: In vitro toxicity (MTT), HepG2; type: cell-based; settings: Homo sapiens, cytotoxicity
Procedure: The murine macrophage cell line J774 and human cancer cell lines A549 and HepG2 were maintained in DMEM containing 10% fetal bovine serum (FBS) and 1% penicillin-streptomycin. At passage 7, 10^5 cells/well in DMEM containing 10% FBS were transferred into 96-well plates and cultured for 14 h for the cells to adhere to the wells. The compounds were added to the cells at concentrations ranging from 0.03 to 128 μg/ml. The wells without the compound served as controls. […] After 24 or 48 h, the supernatant was removed and 50 μl of 5-mg/ml 3-(4,5-dimethylthiazol-2-yl)-2,5-diphenyltetrazoliumbromide (MTT) solution in phosphate-buffered saline (PBS) was added to each well. The plates were incubated for an additional 4 h. The formazan crystal formed inside the cell was dissolved by adding 50 μl of dimethyl sulfoxide (DMSO). The optical density was measured at 570 nm.

in vitro [1] = settings: mouse, microsomes; for remaining at 0 h, 2 μM: % remaining at 0 min; for remaining at 0.25 h, 2 μM: % remaining at 15 min; for remaining at 0.5 h, 2 μM: % remaining at 30 min; for remaining at 0.75 h, 2 μM: % remaining at 45 min; for remaining at 1 h, 2 μM: % remaining at 60 min
Procedure: (§2) To test for metabolic stability, 40 μl of 10 mM NADPH solution was added to each well of a 96-well plate. The final concentration of NADPH was 1 mM. The mixture was prewarmed at 37°C for 5 min. The negative-control samples were prepared by replacing NADPH solutions with 40 μl of ultrapure H2O. The negative control was used to exclude the misleading factor that resulted from the instability of the chemical itself. Samples with NADPH were prepared in duplicate. Negative controls were prepared in singlet. The reaction was started with the addition of 4 μl of 200 μM control compound or test compound solutions. […] An aliquot of 90 μl of the supernatant was mixed with 90 μl of ultrapure H2O and then used for LC-MS/MS analysis.

C. neoformans = assay: In vitro susceptibility testing (MIC80); type: cell-based, Cryptococcus neoformans
Procedure: MICs were determined by following the methods of the Clinical and Laboratory Standards Institute (CLSI), with modifications. […] The compounds were serially diluted from 32 to 0.03 μg/ml in a 96-well plate. The inoculum was prepared as described in CLSI protocol M27A3 guidelines ([39]). […] The MICs were determined as the lowest concentration of the compound that inhibited 80% of growth compared to the control.

in vitro [2] = settings: human, microsomes; for remaining at 0 h, 2 μM: % remaining at 0 min; for remaining at 0.25 h, 2 μM: % remaining at 15 min; for remaining at 0.5 h, 2 μM: % remaining at 30 min; for remaining at 0.75 h, 2 μM: % remaining at 45 min; for remaining at 1 h, 2 μM: % remaining at 60 min
Procedure: as §2

[3] = mouse, with NADPH
Procedure: as §2

[4] = test system: Cryptococcus neoformans H99; assay: Synergistic assay (FIC), CN; type: cell-based
Procedure: (§1) Synergistic activity was assayed by calculating the fractional inhibitory index (FIC). Briefly, in a 96-well plate, drug A (D13) was serially diluted from 16 to 0.015 μg/ml (11 dilutions), whereas drug B (either fluconazole, amphotericin B, caspofungin, itraconazole, or voriconazole) was serially diluted from 12 to 0.19 μg/ml for fluconazole, 5 to 0.078 μg/ml for amphotericin B, or 8 to 0.007 μg/ml for caspofungin, itraconazole, or voriconazole (seven dilutions). The FIC was defined as (MIC combined/MIC drug A alone) + (MIC combined/MIC drug B alone). Synergism was categorized with the following scale: strongly synergistic effect, FIC of <0.5; synergistic effect, FIC of <1; additive effect, FIC of 1; no effect, FIC between 1 and 2; antagonistic effect, FIC of >2.

Candida albicans 3022 = assay: Synergistic assay (FIC), CA Flu-R; type: cell-based
Procedure: as §1

P. murina = assay: Murine model of pneumocystosis; type: in vivo, mice; settings: i.p. 7.2 mg/kg/day
Procedure: C3H/HeN mice ordered from the National Cancer Institute were infected with P. murina pneumonia through exposure to mice with a fulminant P. murina infection (seed mice). These mice are immune suppressed by the addition of dexamethasone at 4 mg/liter to the drinking water. Sulfuric acid at 1 ml/liter was also added to the drinking water for disinfection. The seed mice were rotated within the cages for 2 weeks and then removed. After the mice had developed a moderate infection level (approximately 5 weeks), the mice were divided into a negative-control group (control steroid), positive-control group (trimethoprim-sulfamethoxazole), and D13 group. Compound was solubilized in DMSO for a stock solution of 50 mg/ml. Compound was refrigerated before and after solubilization. Stock solution was diluted in PBS to a final concentration of 1.8 mg/ml. Mice were intraperitoneally (i.p.) injected with 100 μl of diluted stock for a total dose of approximately 180 μg/day or 7.2 mg/kg/day based on average mouse weights of 25 g. […] Slides were made from the lung homogenates at different dilutions and stained with Diff-Quik to quantify the trophic forms and cresyl echt violet to quantify the asci. Efficacy is based on the reduction of organism burden between the treatment groups and the negative-control group as determined by microscopic evaluation.

[5] = test system: Aspergillus fumigatus 293; assay: Synergistic assay (FIC), AF; type: cell-based
Procedure: as §1

[6] = human, with NADPH
Procedure: as §2

Candida krusei ATCC 6258 = assay: Synergistic assay (FIC), CK Flu R2; type: cell-based; settings: Pichia kudriavzevii, ATCC6258
Procedure: as §1

Candida krusei = assay: Synergistic assay (FIC), CK Flu R1; type: cell-based; settings: Pichia kudriavzevii
Procedure: as §1

Candida albicans A39 = assay: Synergistic assay (FIC), CA; type: cell-based
Procedure: as §1

[7] = Cryptococcus neoformans, ChemBridge compounds, Supplementary Table 1, read-out: MIC80
[8] = lowest concentration inhibiting 80% of growth

Row | Compound | IC50 (HepG2) | half-life at 2 μM (in vitro [1]) | microsomal CLint at 2 μM (in vitro [1]) | remaining at 0 h, 2 μM (in vitro [1]; with NADPH) | remaining at 0 h, 2 μM (in vitro [1]; without NADPH) | remaining at 0.25 h, 2 μM (in vitro [1]; with NADPH) | remaining at 0.25 h, 2 μM (in vitro [1]; without NADPH) | remaining at 0.5 h, 2 μM (in vitro [1]; with NADPH) | remaining at 0.5 h, 2 μM (in vitro [1]; without NADPH) | remaining at 0.75 h, 2 μM (in vitro [1]; with NADPH) | remaining at 0.75 h, 2 μM (in vitro [1]; without NADPH) | remaining at 1 h, 2 μM (in vitro [1]; without NADPH) | MIC80 (C. neoformans; [7]) | MIC80 (C. neoformans; [8]) | half-life at 2 μM (in vitro [2]) | microsomal CLint at 2 μM (in vitro [2]) | remaining at 0 h, 2 μM (in vitro [2]; with NADPH) | remaining at 0 h, 2 μM (in vitro [2]; without NADPH) | remaining at 0.25 h, 2 μM (in vitro [2]; with NADPH) | remaining at 0.25 h, 2 μM (in vitro [2]; without NADPH) | other results
1 | Cc1ccccc1C(=O)N/N=C/c1cc(Br)ccc1O [BHBM, (E)-N′-(3-bromo-6-hydroxybenzylidene)-2-methylbenzohydrazide] | 32 µg/mL (≈ 96 µM) | 0.122 h | 189 µL/min/mg | 100% | 100% | 25.3% | 109% | 4.93% | 89.9% | 1.52% | 86.3% | 84.1% | 1 µg/mL (≈ 3 µM) | 1 µg/mL (≈ 3 µM) | 0.814 h | 28.4 µL/min/mg | 100% | 100% | 83.2% | 101% | remaining at 0.5 h, 2 μM (in vitro [2]; with NADPH): 62.5%; remaining at 0.5 h, 2 μM (in vitro [2]; without NADPH): 88.5%; remaining at 0.75 h, 2 μM (in vitro [2]; with NADPH): 51.3%; remaining at 0.75 h, 2 μM (in vitro [2]; without NADPH): 81.2%; remaining at 1 h, 2 μM (in vitro [2]; without NADPH): 82.7%
2 | O=C(N/N=C/c1cc(Br)cc(Br)c1O)c1ccc(Br)cc1 [D13] | > 128 µg/mL | 1.48 h | 15.7 µL/min/mg | 100% | 100% | 80.8% | 90.7% | 69.3% | 88.1% | 64.6% | 82.8% | 80.8% | 0.06 µg/mL (≈ 0.126 µM) | 0.06 µg/mL (≈ 0.126 µM) | 1.72 h | 13.4 µL/min/mg | 100% | 100% | 83.9% | 96.5% | % remaining at 60 min [3]: 62.25%; MIC [4]: 0.5 µg/mL; MIC (Candida albicans 3022; Candida albicans, 3022, CA Flu-R): > 1 µg/mL; FIC score (Candida albicans 3022; D13 combined with itraconazole, C. albicans clinical isolates resistant to fluconazole): 0.37; number of asci or nuclei in lung homogenates (P. murina; untreated versus treated mice): No differences; survival (P. murina; versus negative control): did not show better survival; remaining at 1 h, 2 μM (in vitro [1]; with NADPH): ~60%; remaining at 0.5 h, 2 μM (in vitro [2]; with NADPH): 73%; remaining at 0.5 h, 2 μM (in vitro [2]; without NADPH): 86.5%; remaining at 0.75 h, 2 μM (in vitro [2]; with NADPH): 73.1%; remaining at 0.75 h, 2 μM (in vitro [2]; without NADPH): 81.9%; remaining at 1 h, 2 μM (in vitro [2]; with NADPH): ~60%; remaining at 1 h, 2 μM (in vitro [2]; without NADPH): 88.9%; MIC [5]: > 1 µg/mL; % remaining at 60 min [6]: 64.95%; MIC (Candida krusei ATCC 6258): > 1 µg/mL; MIC (Candida krusei): > 1 µg/mL; MIC (Candida albicans A39): > 1 µg/mL

Reference: article PMC5923120, “Acylhydrazones as Antifungal Agents Targeting the Synthesis of Fungal Sphingolipids” (Antimicrobial Agents and Chemotherapy, 2018)
